Measurements taken from patent US4552895A, “Furo[3,2-b]furan-2-(3H)-ones” (Eli Lilly and Company, priority 1983, dated 1985).

Key:
angiogenesis factor = assay: Tumor angiogenesis inhibition in vivo: serpentine vessels induced by lysosomal-mitochondrial preparation from 3683 Morris hepatoma in mice; design: species or system mice (SPF/ND4 female); conditions: Mus musculus, ip, mice sacrificed after 24 hours, average number of serpentine vessels vs control
Protocol: Lysosomal-mitochondrial pellets containing angiogenesis factor are prepared from 3683 Morris hepatoma. The pellet is diluted with 7-8 ml. of 15% ficoll. At this dilution, 8-10 serpentine vessels are usually produced per 0.2 cc. injection as described below for the control group.
Next, 15 SPF/ND4 female mice weighing 20-22 g. are shaved on the left side and then divided into three groupss of five each. One group (drug group) is injected subcutaneously and laterally with 0.2 cc. of the lysosomal-mitochondrial preparation diluted with 15% ficoll. This group of mice is then dosed individually by the intraperitoneal route with 0.5 cc. of a solution or suspension in a standard vehicle containing the compound under test, usually at an initial dose level of 300 mg./kg. If this dose level is toxic, two-fold dilutions are made until all mice survive a single dose. The second group of mice (control group) is injected subcutaneously and laterally with 0.2 cc. of the lysosomal-mitochondrial suspension diluted with ficoll and dosed intraperitoneally with 0.5 cc. of the vehicle alone. The third group of mice (negative control) is injected with the ficoll solution only (without the lysosomal-mitochondrial pellet) without treatment with compound or vehicle. The mice are sacrificed after 24 hours. Each mouse is placed on its side on a dissecting board with the shaved side up. Starting at the flank, the skin is cut straight to the back of the animal. A similar cut is made behind the front leg. The skin is then cut along the back making a flap of about one inch by two inches. The skin is carefully separated from the connective tissue by using forceps and a scalpel. The skin flap is then laid back exposing the lysosomal-mitochondrial implant which is attached to the skin. The skin flap is gently flattened out and with the use of a binocular dissecting scope, serpentine vessels are observed around the lysosomal-mitochondrial implant and their number counted. All observations of the number of serpentine vessels are made at the same power of the microscope (1×). The average number of serpentine vessels for each group is calculated. The percent inhibition is then calculated according to the following equation. [formula] where sv=averge number of serpentine vessels.
If the negative control group described above has any serpentine vessels, the test is invalid due to contamination of the ficoll solution.

[1] = system: Collagen-Induced Arthritis; assay: Collagen-induced arthritis assay (type II collagen, hindpaw volume) in rats; assay type: in vivo, inbred Lewis male rats; conditions: oral gavage 5 days per week from day 1 to day 28 or 30
Protocol: This test method is a collagen arthritis assay carried out as follows.
Type II collagen is isolated from bovine articular cartilage by the method of Strawich and Nimni [Biochemistry, 10, 3905 (1971)]. The collagen is dissolved in 0.1M acetic acid and stored at -20° C. Type II collagen solution is diluted to 2 mg./ml. concentration and emulsified thoroughly with an equal volume of incomplete Freund's adjuvant (ICFA). The emulsion containing approximately 0.5 mg. of collagen is injected intradermally on day 0 to groups of 6 inbred Lewis male rats (Charles River Breeders; 170-200 g.) at various sites in the dorsal area. The hindpaw volumes of each rat are measured and recorded three times a week throughout the test period to assess the inflammatory reaction. The test group animals receive compounds under test as suspensions in carboxymethylcellulose vehicle, by oral gavage, 5 days per week (Monday-Friday), beginning on day 1. Control animals receive vehicle without a test compound. At the end of the test (day 28 or 30), the blood of these animals is drawn by cardiac puncture and the serum anti-type II collagen antibody levels are estimated by passive hemagglutination technique, using glutaraldehyde treated sheep red cells, to which type II collagen is conjugated [Avrameas et al., Immunochemistry, 6, 67 (1969); Andriopoulos et al., Arth. Rheum., 19, 613 (1976)]. The cellular response or delayed-type hypersensitivity response to type II collagen is measured by the radiometric ear index assay [Kostiala, Immunology, 33, 561 (1977)]. In certain experiments, the bone damage occurring because of immunization with type II collagen and the effects of drugs are determined from the radiographs of the hindpaws of two or three representative animals from each group. Injections of ICFA without collagen II were employed to some rats as a negative control; these rats received only […] vehicle during the test.
The % inhibition is calculated according to the following formula: [formula] where Vt is the hindpaw volume of a compound-treated animal (test group), Vc is the hindpaw volume of a non-compound-treated animal ([…] vehicle only-the control group), the Vv is the hindpaw volume of a vehicle ([…]) treated animal which received ICFA with no collagen II (negative control group).

Compound	inhibition in vivo at 25 mg/kg (angiogenesis factor)	Inhibition of Collagen-Induced Arthritis, % inhibition ([1]; 25 mg./kg.)	Inhibition of Collagen-Induced Arthritis, % inhibition ([1]; 15 mg./kg.)
O=C1OC2C(O)COC2(O)C1(O)Cc1ccc(F)cc1 (stereo not drawn) [Example 1, [3R-(3aα,6α,6aα)]-tetrahydro-3,3a,6-trihydroxy-3-[(4-fluorophenyl)methyl]furo[3,2-b]furan-2(3H)-one]	62%	94%	–
O=C1OC2C(O)COC2(O)C1(O)Cc1cccc(Br)c1 (stereo not drawn) [Example 2]	45%	–	–
O=C1OC2C(O)COC2(O)C1(O)Cc1cccc(Cl)c1 (stereo not drawn) [Example 3]	55%	–	100%
O=C1OC2C(O)COC2(O)C1(O)Cc1ccccc1Cl (stereo not drawn) [Example 4]	38%	–	–
O=C1OC2C(O)COC2(O)C1(O)Cc1ccc(Cl)cc1 (stereo not drawn) [Example 5]	52%	–	81%
O=C1OC2C(O)COC2(O)C1(O)Cc1ccccc1F (stereo not drawn) [Example 6]	33%	–	–
O=C1OC2C(O)COC2(O)C1(O)Cc1cccc(F)c1 (stereo not drawn) [Example 7]	57%	100%	–
O=C1OC2C(O)COC2(O)C1(O)Cc1ccc(C(F)(F)F)cc1 (stereo not drawn) [Example 8]	55%	–	–
Cc1cccc(CC2(O)C(=O)OC3C(O)COC32O)c1 (stereo not drawn) [Example 9]	48%	–	–
Cc1ccccc1CC1(O)C(=O)OC2C(O)COC21O (stereo not drawn) [Example 10]	48%	–	–
Cc1ccc(CC2(O)C(=O)OC3C(O)COC32O)cc1 (stereo not drawn) [Example 11]	62%	–	94%
Cc1ccc(C)c(CC2(O)C(=O)OC3C(O)COC32O)c1 (stereo not drawn) [Example 12]	58%	23%	–
